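GI50 is the concentration that inhibits growth by half. TGI is the concentration that stops growth completely.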
Columns and labels:
Test in all cases: growth of human tumour cells (NCI), 384-well format
SNB-19 CNS = test system: SNB-19 CNS
MALME-3M melanoma = test system: MALME-3M melanoma
IGROV1 ovarian = test system: IGROV1 ovarian
OVCAR-8 ovarian = test system: OVCAR-8 ovarian
OVCAR-4 ovarian = test system: OVCAR-4 ovarian
UACC-257 melanoma = test system: UACC-257 melanoma
BT-549 breast = test system: BT-549 breast
SF-295 CNS = test system: SF-295 CNS
SW-620 colon = test system: SW-620 colon
HT29 colon = test system: HT29 colon
RXF 393 renal = test system: RXF 393 renal
SK-MEL-28 melanoma = test system: SK-MEL-28 melanoma
M14 melanoma = test system: M14 melanoma
786-0 renal = test system: 786-0 renal
MDA-MB-435 melanoma = test system: MDA-MB-435 melanoma
HOP-62 NSCLC = test system: HOP-62 NSCLC
NCI/ADR-RES ovarian = test system: NCI/ADR-RES ovarian
SN12C renal = test system: SN12C renal
MCF7 breast = test system: MCF7 breast
U251 glioblastoma = test system: U251 glioblastoma
SF-539 CNS = test system: SF-539 CNS
HCT-15 colon = test system: HCT-15 colon
MDA-MB-231 breast = test system: MDA-MB-231 breast
K-562 leukemia = test system: K-562 leukemia
DU-145 prostate = test system: DU-145 prostate
EKVX NSCLC = test system: EKVX NSCLC
CCRF-CEM leukemia = test system: CCRF-CEM leukemia
A498 renal = test system: A498 renal
T-47D breast = test system: T-47D breast

CN1CCC(CNc2ccc3ncc(-c4cccc(OC(F)(F)F)c4)n3n2)CC1
GI50 (SNB-19 CNS): 1740 nM | TGI (SNB-19 CNS): 3170 nM | GI50 (MALME-3M melanoma): 1560 nM | TGI (MALME-3M melanoma): 2910 nM | GI50 (IGROV1 ovarian): 1550 nM | TGI (IGROV1 ovarian): 2940 nM | GI50 (OVCAR-8 ovarian): 1610 nM | TGI (OVCAR-8 ovarian): 2990 nM | GI50 (OVCAR-4 ovarian): 1740 nM | TGI (OVCAR-4 ovarian): 3190 nM | GI50 (UACC-257 melanoma): 1620 nM | TGI (UACC-257 melanoma): 2980 nM | GI50 (BT-549 breast): 1400 nM | TGI (BT-549 breast): 2710 nM | GI50 (SF-295 CNS): 1450 nM | TGI (SF-295 CNS): 2780 nM | GI50 (SW-620 colon): 1600 nM | TGI (SW-620 colon): 2980 nM | GI50 (HT29 colon): 1660 nM | TGI (HT29 colon): 3090 nM | GI50 (RXF 393 renal): 1350 nM | TGI (RXF 393 renal): 2640 nM | GI50 (SK-MEL-28 melanoma): 1750 nM | TGI (SK-MEL-28 melanoma): 3130 nM | GI50 (M14 melanoma): 1490 nM | TGI (M14 melanoma): 2820 nM | GI50 ([…]-0 renal): 1660 nM | TGI (786-0 renal): 3050 nM | GI50 (MDA-MB-435 melanoma): 1710 nM | TGI (MDA-MB-435 melanoma): 3100 nM | GI50 (HOP-62 NSCLC): 1620 nM | TGI (HOP-62 NSCLC): 3000 nM | GI50 (NCI/ADR-RES ovarian): 1620 nM | TGI (NCI/ADR-RES ovarian): 3020 nM | GI50 (SN12C renal): 1550 nM | TGI (SN12C renal): 2910 nM | GI50 (MCF7 breast): 1450 nM | TGI (MCF7 breast): 2800 nM | GI50 (U251 glioblastoma): 1810 nM | TGI (U251 glioblastoma): 3220 nM | GI50 (SF-539 CNS): 1530 nM | TGI (SF-539 CNS): 2870 nM | GI50 (HCT-15 colon): 1580 nM | TGI (HCT-15 colon): 2970 nM | GI50 (MDA-MB-231 breast): 1610 nM | TGI (MDA-MB-231 breast): 2970 nM | GI50 (K-562 leukemia): 1630 nM | TGI (K-562 leukemia): 3040 nM | GI50 (DU-145 prostate): 2050 nM | TGI (DU-145 prostate): 4510 nM | GI50 (EKVX NSCLC): 1480 nM | TGI (EKVX NSCLC): 2900 nM | GI50 (CCRF-CEM leukemia): 1800 nM | TGI (CCRF-CEM leukemia): 3210 nM | GI50 (A498 renal): 1420 nM | TGI (A498 renal): 2730 nM | GI50 (T-47D breast): 1770 nM | TGI (T-47D breast): 3170 nM
